Measurements from ChEMBL document CHEMBL1158728, “Makaluvic acids from the South African latrunculid sponge Strongylodesma aliwaliensis” (J Nat Prod, 2005).

Assay: Cytotoxicity against human WHCO1 cells after 48 hrs by MTT assay
Type: functional, cell-based
Settings: WHCO1, 48 h

Compound	IC50
NC1=CC2=NCCc3cn([C@@H]4O[C@H](CO)[C@@H](O)[C@H]4O)c(c32)C1=O	1.6 µM
O=C(O)c1[nH]cc2c1C(=O)NCC2 [MAKALUVIC ACID C]	> 150 µM
O=C1C=C2NCCc3c[nH]c(c32)C1=O [DAMIRONE C]	56 µM
O=C1C(N/C=C/c2ccc(O)cc2)=CC2=NCCc3c[nH]c1c32 [MAKALUVAMINE M]	0.7 µM
O=C1C=C2NCCc3cn([C@@H]4O[C@H](CO)[C@@H](O)[C@H]4O)c(c32)C1=O	38 µM
O=C1NCCc2cn([C@@H]3O[C@H](CO)[C@@H](O)[C@H]3O)c(C(=O)O)c21	61 µM
